From ChEMBL document CHEMBL1149400, “Tethering identifies fragment that yields potent inhibitors of human caspase-1” (Bioorg Med Chem Lett, 2006)
pEC50, pKi: −log10 of the molar value. Residues, ends and D or L forms follow the SMILES beside them. *: point of attachment. Cbz = O=C(OCc1ccccc1)*

Tests used:
Caspase-1 = target: T1, Caspase-1 (Homo sapiens, UniProt P29466); assay: Inhibitory activity against human Caspase 1
T1 sequence (P29466 whole entry): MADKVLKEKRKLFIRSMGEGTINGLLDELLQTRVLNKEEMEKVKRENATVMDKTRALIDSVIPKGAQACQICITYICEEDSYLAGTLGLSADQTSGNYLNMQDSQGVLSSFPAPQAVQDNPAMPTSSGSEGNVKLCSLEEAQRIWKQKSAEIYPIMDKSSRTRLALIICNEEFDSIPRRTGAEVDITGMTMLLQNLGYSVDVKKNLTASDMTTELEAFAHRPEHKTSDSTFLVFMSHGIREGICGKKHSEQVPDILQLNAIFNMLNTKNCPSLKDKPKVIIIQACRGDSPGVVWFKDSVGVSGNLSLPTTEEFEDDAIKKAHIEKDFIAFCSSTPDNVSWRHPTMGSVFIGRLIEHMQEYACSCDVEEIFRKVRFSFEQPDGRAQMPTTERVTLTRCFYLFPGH

PBMC = assay: Inhibition of IL1-beta production in PBMC; assay type: functional, cell-based; details: Homo sapiens

| SMILES | pKi (Caspase-1) | pEC50 (PBMC) |
| --- | --- | --- |
| O=C[C@H](CC(=O)O)NC(=O)c1cc(NC(=O)c2ccc(Nc3cnc4ccccc4n3)cc2)cs1 | 6.59 |  |
| O=C[C@H](CC(=O)O)NC(=O)CCCCCNC(=O)c1ccc(Oc2cnc3ccccc3n2)cc1 | 5.62 | 4.57 |
| O=C[C@H](CC(=O)O)NC(=O)CCCCCC(=O)Nc1ccc(Nc2cnc3ccccc3n2)cc1 | 5.68 |  |
| O=C[C@H](CC(=O)O)NC(=O)CCCCNC(=O)c1ccc(Nc2cnc3ccccc3n2)cc1 | 5.55 |  |
| O=C[C@H](CC(=O)O)NC(=O)CCCNC(=O)c1ccc(Nc2cnc3ccccc3n2)cc1 | 5.28 |  |
| O=C[C@H](CC(=O)O)NC(=O)C(CCCCNC(=O)c1ccc(Oc2cnc3ccccc3n2)cc1)c1cccs1 (some centres not stated) |  | 4.91 |
| O=C[C@H](CC(=O)O)NC(=O)c1cnc(CNC(=O)c2ccc(Nc3cnc4ccccc4n3)cc2)cn1 | 6.00 |  |
| Cc1cc(C(=O)NCCCCCC(=O)N[C@H](C=O)CC(=O)O)ccc1Nc1cnc2ccccc2n1 | 6.49 | 5.11 |
| O=C[C@H](CC(=O)O)NC(=O)CCCCCCNC(=O)c1ccc(Nc2cnc3ccccc3n2)cc1 | 5.59 |  |
| O=C[C@H](CC(=O)O)NC(=O)[C@H]1CC[C@H](CNC(=O)c2ccc(Nc3cnc4ccccc4n3)cc2)CC1 | 5.71 |  |
| O=C[C@H](CC(=O)O)NC(=O)c1ccc(CNC(=O)c2ccc(Nc3cnc4ccccc4n3)cc2)o1 | 5.68 |  |
| O=C[C@H](CC(=O)O)NC(=O)CCCCCNC(=O)c1ccc(Nc2cnccn2)cc1 | 4.43 | < 3.70 |

Further molecules by rising pKi (Caspase-1), results first:

| pKi (Caspase-1) | SMILES | pEC50 (PBMC) |
| --- | --- | --- |
| 6.72 | O=C[C@H](CC(=O)O)NC(=O)CCCCCNC(=O)c1ccc(Nc2cnc3ccccc3n2)cc1 | 5.38 |
| 6.74 | CC(C)[C@H](NC(=O)[C@H](Cc1ccc(O)cc1)NC(=O)OCc1ccccc1)C(=O)N[C@@H](C)C(=O)N[C@H](C=O)CC(=O)O | 5.41 |
| 6.92 | O=C[C@H](CC(=O)O)NC(=O)Cc1ccc(CNC(=O)c2ccc(Nc3cnc4ccccc4n3)cc2)s1 |  |
| 6.92 | O=C[C@H](CC(=O)O)NC(=O)c1csc(CNC(=O)c2ccc(Nc3cnc4ccccc4n3)cc2)c1 |  |
| 7.00 | O=C[C@H](CC(=O)O)NC(=O)c1ccc(CNC(=O)c2ccc(Nc3cnc4ccccc4n3)cc2)cc1 |  |
| 7.00 | O=C[C@H](CC(=O)O)NC(=O)C(CCCCNC(=O)c1ccc(Nc2cnccn2)cc1)c1cccs1 (some centres not stated) | 4.70 |
| 7.27 | O=C[C@H](CC(=O)O)NC(=O)C(CCCCNC(=O)c1ccc(Nc2cncc(Cl)n2)cc1)c1cccs1 (some centres not stated) |  |
| 7.46 | O=C[C@H](CC(=O)O)NC(=O)c1ccc(CNC(=O)c2ccc(Nc3cnc4ccccc4n3)cc2)s1 |  |
| 7.80 | CCC(CCCCNC(=O)c1ccc(Nc2cnc3ccccc3n2)cc1)C(=O)N[C@H](C=O)CC(=O)O (some centres not stated) |  |
| 8.10 | O=C[C@H](CC(=O)O)NC(=O)C(CCCCNC(=O)c1ccc(Nc2cnc3ccccc3n2)cc1)c1ccccc1F (some centres not stated) |  |
| 8.10 | CC(C)[C@H](NC(=O)OCc1ccccc1)C(=O)N[C@@H](C)C(=O)N[C@H](C=O)CC(=O)O (Cbz-Val-Ala-Asp-aldehyde) |  |
| 8.15 | O=C[C@H](CC(=O)O)NC(=O)C(CCCCNC(=O)c1ccc(Nc2cnc3ccccc3n2)cc1)c1cccs1 (some centres not stated) | 4.69 |
| 8.30 | O=C[C@H](CC(=O)O)NC(=O)c1ccc(CNC(=O)c2ccc(Nc3cnc4ccccc4n3)cc2)nc1 |  |
| 8.30 | Cc1ccc2nc(Nc3ccc(C(=O)NCCCCC(C(=O)N[C@H](C=O)CC(=O)O)c4cccs4)cc3)cnc2c1 (some centres not stated) |  |
| 8.30 | O=C[C@H](CC(=O)O)NC(=O)C(CCCCNC(=O)c1ccc(Nc2cnc3ccccc3n2)cc1)c1ccccc1 (some centres not stated) |  |
| 8.40 | Cc1cc(C(=O)NCCCCC(C(=O)N[C@H](C=O)CC(=O)O)c2cccs2)ccc1Nc1cnc2ccccc2n1 (some centres not stated) | 5.11 |
| 8.40 | CC(C)[C@H](NC(=O)c1ccc(Nc2cnc3ccccc3n2)cc1)C(=O)N[C@@H](C)C(=O)N[C@H](C=O)CC(=O)O |  |
